According to US3994882A, “Nitrofuran derivatives, process for the preparation thereof and compositions containing same as active ingredient” (Kabushiki Kaisha Ueno Seiyaku Oyo Kenkyujo, priority 1974, dated 1976):
≈ marks a conversion by molar mass, not a printed value.

Key:
[1] = test system: Bacillus Subtilis PCI219; assay: Minimum growth inhibiting concentration (Table 1); type: cell-based; conditions: TSBI, pH 7.2, 37° C., 48 hours
Procedure: (§1) For information, the minimum growth inhibiting concentration is a value
(§2) concerning microorganisms cultivated in TSBI the pH of which was adjusted
(§3) to 7.2, each bacteria being incubated at 37° C. for 48 hours.

[2] = test system: Diplococcus pneumoniae DP-1; assay: Minimum growth inhibiting concentration (Table 1); type: cell-based; conditions: Streptococcus pneumoniae, DP1, TSBI, pH 7.2, 37° C., 48 hours
Procedure: as §1, §2, §3

[3] = test system: Escherichia coli O-55; assay: Minimum growth inhibiting concentration (Table 1); type: cell-based; conditions: O55, TSBI, pH 7.2, 37° C., 48 hours
Procedure: as §1, §2, §3

[4] = test system: Klebsiella pneumoniae ST-101; assay: Minimum growth inhibiting concentration (Table 1); type: cell-based; conditions: ST101, TSBI, pH 7.2, 37° C., 48 hours
Procedure: as §1, §2, §3

[5] = test system: Proteus vulgaris HX-19; assay: Minimum growth inhibiting concentration (Table 1); type: cell-based; conditions: HX19, TSBI, pH 7.2, 37° C., 48 hours
Procedure: as §1, §2, §3

[6] = test system: Pseudomonas aeruguinosa 347; assay: Minimum growth inhibiting concentration (Table 1); type: cell-based; conditions: TSBI, pH 7.2, 37° C., 48 hours
Procedure: as §1, §2, §3

[7] = test system: Salmonella enteritidis 1891; assay: Minimum growth inhibiting concentration (Table 1); type: cell-based; conditions: Salmonella enterica, TSBI, pH 7.2, 37° C., 48 hours
Procedure: as §1, §2, §3

[8] = test system: Salmonella pullorum chuyu 114; assay: Minimum growth inhibiting concentration (Table 1); type: cell-based; conditions: Salmonella enterica, TSBI, pH 7.2, 37° C., 48 hours
Procedure: as §1, §2, §3

[9] = test system: Staphylococcus aureus 209P; assay: Minimum growth inhibiting concentration (Table 1); type: cell-based; conditions: TSBI, pH 7.2, 37° C., 48 hours
Procedure: as §1, §2, §3

[10] = test system: Streptococcus hemolyticus A 089; assay: Minimum growth inhibiting concentration (Table 1); type: cell-based; conditions: Streptococcus pyogenes, A089, TSBI, pH 7.2, 37° C., 48 hours
Procedure: as §1, §2, §3

[11] = test system: Bordetella bronchiseptica; assay: Minimum growth inhibiting concentration, microorganisms that infect domestic animals (Table 2); type: cell-based; conditions: 4 strains, Heart infusion Agar, 48 hours
Procedure: (§4) The minimum growth inhibiting concentrations were measured under identical conditions as in the case of Table 1, except that culture media indicated above were used and, in the case of that asterisked, the culture was carried out for 5 days, while the others were cultivated for 48 hours.

[12] = test system: Erysiperothrix rhusiopatiae Agata; assay: as above; type: cell-based; conditions: TSB-Agar 10% rabbit blood added, 48 hours
Procedure: as §4

[13] = test system: Escherichia coli; assay: as above; type: cell-based; conditions: 36 strains, TSB-Agar, 48 hours
Procedure: as §4

[14] = test system: Hemophilus galinalum; assay: as above; type: cell-based; conditions: 2 strains, TSB-Agar 10% rabbit blood added, 48 hours
Procedure: as §4

[15] = test system: Mycolasma galli-septicum; assay: as above; type: cell-based; conditions: 120 h, 6 strains, Hofstad, 5 days
Procedure: as §4

[16] = test system: Pasteurella multocida Kobe-5; assay: as above; type: cell-based; conditions: KOBE5, TSB-Agar 10% rabbit blood added, 48 hours
Procedure: as §4

[17] = test system: Salmonella purollum; assay: as above; type: cell-based; conditions: 42 strains, TSB-Agar, 48 hours
Procedure: as §4

[18] = test system: Staphylococcus aureus; assay: as above; type: cell-based; conditions: 15 strains, TSB-agar, 48 hours
Procedure: as §4

[19] = test system: Aeromonas liquefaciens; assay: Minimum growth inhibiting concentration, microorganisms that infect fish (Table 3); type: cell-based; conditions: Aeromonas hydrophila, 0.5% NaCl added ordinary agar, 25° C., 24 hours
Procedure: (§5) The minimum growth inhibiting concentrations were measured under indentical contitions as in the case of Table 1. The culture temperature was 25° C., the culture being carried out for 48 hours in the asterisked case and 24 hours in the other cases.

[20] = test system: Aeromonas punctata; assay: as above; type: cell-based; conditions: Aeromonas caviae, 0.5% NaCl added ordinary agar, 25° C., 24 hours
Procedure: as §5

[21] = test system: Aeromonas salmonicida; assay: as above; type: cell-based; conditions: 0.5% NaCl added ordinary agar, 25° C., 24 hours
Procedure: as §5

[22] = test system: Chondrococcus columnaris Ek-23; assay: as above; type: cell-based; conditions: Flavobacterium columnare, EK23, 0.5% NaCl added TSB agar, 25° C., 48 hours (asterisked)
Procedure: as §5

[23] = test system: Pasteurella piricida SU; assay: as above; type: cell-based; conditions: 2% NaCl added brain-heat infusion agar, 25° C., 24 hours
Procedure: as §5

[24] = test system: Vibrio anguillarum K-3; assay: as above; type: cell-based; conditions: K3, 3% NaCl added ordinary agar, 25° C., 24 hours
Procedure: as §5

[25] = test system: Vibrio panulirus Vp-M-1; assay: as above; type: cell-based; conditions: VPM1, 3% NaCl added ordinary agar, 25° C., 24 hours
Procedure: as §5

[26] = test system: Vibrio piscium var. Japonicus; assay: as above; type: cell-based; conditions: Vibrio anguillarum, 0.5% NaCl added ordinary agar, 25° C., 24 hours
Procedure: as §5

[27] = test system: Vibrio sp. Sp-1; assay: as above; type: cell-based; conditions: SP.SP1, 3% NaCl added ordinary agar, 25° C., 24 hours
Procedure: as §5

[28] = test system: Escherichia coli K-74; assay: Curative action in infected mice (Table 4); type: in vivo; conditions: K74, 168 h, mice infected abdominally, oral in 5% gum arabic, observation one week
Procedure: (§6) Next, in Table 4 are shown the curative actions (ED50 mg/Kg body wt.) and acute toxicities (LD50 mg/kg body wt.) of the typical nitrofuran derivatives of the present invention when used with infected mice.
(§7) Note.- The numerical values in the table denote the amounts per unit body
(§8) weight of the nitrofuran derivatives required for cure when the experimen
(§9) was carried out using mice of body weight of about 20 grams and injecting
(§10) thereinto abdominally the microorganism-containing solutions in amounts o
(§11) 0.2 ml (the microorganism-containing solutions used being those in the
(§12) cases of test microorganisms 1, 3 and 4 in which the microorganism cultur
(§13) liquids were diluted 10^5, 5 and 10^2 times, respectively, and in
(§14) the case of test microorganism 2 that which was concentrated 2 times),
(§15) after which the nitrofuran derivatives suspended in 5% gum arabic were
(§16) forcedly administered orally followed by observation for one week.

[29] = test system: Salmonella typhimium K-52; assay: Curative action in infected mice (Table 4); type: in vivo; conditions: K52, 168 h, mice infected abdominally, oral in 5% gum arabic, observation one week
Procedure: as §6, §7, §8, §9, §10, §11, §12, §13, §14, §15, §16

[30] = test system: Staphylococcus aureus 72r; assay: Curative action in infected mice (Table 4); type: in vivo; conditions: 168 h, mice infected abdominally, oral in 5% gum arabic, observation one week
Procedure: as §6, §7, §8, §9, §10, §11, §12, §13, §14, §15, §16

[31] = test system: Streptococcus hemolyticus A 089; assay: Curative action in infected mice (Table 4); type: in vivo; conditions: Streptococcus pyogenes, A089, 168 h, mice infected abdominally, oral in 5% gum arabic, observation one week
Procedure: as §6, §7, §8, §9, §10, §11, §12, §13, §14, §15, §16

[32] = Acute toxicity in mice (Table 4); conditions: mouse, in vivo, po
Procedure: as §6

SMILES | MIC [1] [µg/mL] | MIC [2] [µg/mL] | MIC [3] [µg/mL] | MIC [4] [µg/mL] | MIC [5] [µg/mL] | MIC [6] [µg/mL] | MIC [7] [µg/mL] | MIC [8] [µg/mL] | MIC [9] [µg/mL] | MIC [10] [µg/mL] | MIC [11] [µg/mL] | MIC [12] [µg/mL] | MIC [13] [µg/mL] | MIC [14] [µg/mL] | MIC [15] [µg/mL] | MIC [16] [µg/mL] | MIC [17] [µg/mL] | MIC [18] [µg/mL] | MIC [19] [µg/mL] | MIC [20] [µg/mL] | other results
O=C(NCCO)c1ccc(C=Cc2ccc([N+](=O)[O-])o2)cc1 [Example 1, 2-Para-[2'-(5"-nitro-2"-furyl)-vinyl]-benzoylaminoethanol] | < 0.19 | 0.78 (≈ 2.58 µM) | 3.13 (≈ 10.4 µM) | 3.13 (≈ 10.4 µM) | 3.13 (≈ 10.4 µM) | 12.5 (≈ 41.4 µM) | 1.56 (≈ 5.16 µM) | 3.13 (≈ 10.4 µM) | 0.78 (≈ 2.58 µM) | < 0.19 | 25 (≈ 82.7 µM) | 0.07 (≈ 0.232 µM) | 0.5 to 25 (≈ 1.65 to 82.7 µM) | 0.04 to 1.5 (≈ 0.132 to 4.96 µM) | 0.1 (≈ 0.331 µM) | 0.15 (≈ 0.496 µM) | 1.6 to 12.5 (≈ 5.29 to 41.4 µM) | 0.2 to 25 (≈ 0.662 to 82.7 µM) | 0.062 (≈ 0.205 µM) | 0.125 (≈ 0.414 µM) | MIC [21]: 0.018 µg/mL (≈ 0.0595 µM); MIC [22]: 0.0037 µg/mL (≈ 0.0122 µM); MIC [23]: 0.037 µg/mL (≈ 0.122 µM); MIC [24]: 0.018 µg/mL (≈ 0.0595 µM); MIC [25]: 0.009 µg/mL (≈ 0.0298 µM); MIC [26]: < 0.015 µg/mL; MIC [27]: 0.018 µg/mL (≈ 0.0595 µM); ED50 [28]: 14 mg/kg; ED50 [29]: 75 mg/kg; ED50 [30]: 14 mg/kg; ED50 [31]: 8 mg/kg; LD50 [32]: 1500 mg/kg
O=C(NCC(O)CO)c1ccc(C=Cc2ccc([N+](=O)[O-])o2)cc1 (stereo not shown) [Example 9, 3-Para-[2'-(5"-nitro-2"-furyl)-vinyl]-benzoylamino-1,2-propanediol] | < 0.19 | < 0.19 | 3.13 (≈ 9.42 µM) | 6.25 (≈ 18.8 µM) | 6.25 (≈ 18.8 µM) | > 25 | 1.56 (≈ 4.69 µM) | 6.25 (≈ 18.8 µM) | 0.78 (≈ 2.35 µM) | < 0.19 | 25 (≈ 75.2 µM) | 0.15 (≈ 0.451 µM) | 0.5 to 12.5 (≈ 1.5 to 37.6 µM) | 0.1 to 1.5 (≈ 0.301 to 4.51 µM) | 0.2 (≈ 0.602 µM) | 0.08 (≈ 0.241 µM) | 1.6 to 25 (≈ 4.81 to 75.2 µM) | 0.2 to 25 (≈ 0.602 to 75.2 µM) | 0.037 (≈ 0.111 µM) | 0.25 (≈ 0.752 µM) | MIC [21]: 0.018 µg/mL (≈ 0.0542 µM); MIC [22]: 0.0037 µg/mL (≈ 0.0111 µM); MIC [23]: 0.037 µg/mL (≈ 0.111 µM); MIC [24]: 0.037 µg/mL (≈ 0.111 µM); MIC [25]: 0.009 µg/mL (≈ 0.0271 µM); MIC [26]: < 0.015 µg/mL; MIC [27]: 0.018 µg/mL (≈ 0.0542 µM); ED50 [28]: 10 mg/kg; ED50 [29]: 100 mg/kg; ED50 [30]: 21 mg/kg; ED50 [31]: 15 mg/kg; LD50 [32]: > 2000 mg/kg
